pIC50: −log10 of the molar value. Where a name gives a salt, the structure may show the parent alone.
How the values were obtained:
[1] = biological target: Mer (phospho-Mer, MERTK-transfected 293A cells) (Homo sapiens (Human), UniProt Q12866); test: Mer autophosphorylation ELISA in transient transfected 293A cells (Example H); type: cell-based; conditions: cellular activity; Mer autophosphorylation ELISA in transient transfected 293A cells
Outline: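 MERTK-transfected 293A; 8-pt dose, 1 h, serum-free, 0.3% DMSO. Cold lysis with orthovanadate and protease/phosphatase inhibitors. Phospho-Mer by DuoSet IC ELISA vs phospho-Mer standard. IC50: 4-PL fit; DMSO = 100%, reference inhibitor = 0%.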

[2] = biological target: Human KDR (residues 790-1356) (Homo sapiens (Human), UniProt P35968); test: Human KDR kinase assay, HTRF KinEase (Example B-2); type: biochemical; conditions: protocol of Example B-2 (other compounds)
Outline: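 Ten compound concentrations (3% DMSO final) were pre-plated, then KDR (790-1356) with biotinylated peptide in Mg/Mn/DTT buffer was added; ATP at Km (4.0 μM) started a 40 min room-temperature reaction. Detection used Eu-TK antibody and SA-XL665 in EDTA buffer; activity normalized to DMSO and reference inhibitor, IC50 by logistic fit.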

Human KDR (residues 790-1356), sequence (P35968 790-1356): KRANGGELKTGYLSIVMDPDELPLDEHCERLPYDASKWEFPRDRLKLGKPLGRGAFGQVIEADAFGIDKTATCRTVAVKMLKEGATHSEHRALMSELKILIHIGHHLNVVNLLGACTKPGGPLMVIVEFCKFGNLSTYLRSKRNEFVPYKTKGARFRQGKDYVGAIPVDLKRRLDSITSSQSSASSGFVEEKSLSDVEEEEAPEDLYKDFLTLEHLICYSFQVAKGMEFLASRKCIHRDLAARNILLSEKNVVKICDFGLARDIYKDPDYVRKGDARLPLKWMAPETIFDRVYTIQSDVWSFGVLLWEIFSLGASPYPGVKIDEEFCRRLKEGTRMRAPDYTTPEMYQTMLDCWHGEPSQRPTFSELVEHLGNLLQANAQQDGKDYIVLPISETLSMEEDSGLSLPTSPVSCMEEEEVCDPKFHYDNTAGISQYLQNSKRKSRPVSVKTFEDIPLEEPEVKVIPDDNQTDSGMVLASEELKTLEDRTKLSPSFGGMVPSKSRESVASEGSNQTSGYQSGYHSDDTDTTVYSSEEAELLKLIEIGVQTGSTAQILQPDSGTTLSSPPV
Mer (phospho-Mer, MERTK-transfected 293A cells), sequence (Q12866 21-999): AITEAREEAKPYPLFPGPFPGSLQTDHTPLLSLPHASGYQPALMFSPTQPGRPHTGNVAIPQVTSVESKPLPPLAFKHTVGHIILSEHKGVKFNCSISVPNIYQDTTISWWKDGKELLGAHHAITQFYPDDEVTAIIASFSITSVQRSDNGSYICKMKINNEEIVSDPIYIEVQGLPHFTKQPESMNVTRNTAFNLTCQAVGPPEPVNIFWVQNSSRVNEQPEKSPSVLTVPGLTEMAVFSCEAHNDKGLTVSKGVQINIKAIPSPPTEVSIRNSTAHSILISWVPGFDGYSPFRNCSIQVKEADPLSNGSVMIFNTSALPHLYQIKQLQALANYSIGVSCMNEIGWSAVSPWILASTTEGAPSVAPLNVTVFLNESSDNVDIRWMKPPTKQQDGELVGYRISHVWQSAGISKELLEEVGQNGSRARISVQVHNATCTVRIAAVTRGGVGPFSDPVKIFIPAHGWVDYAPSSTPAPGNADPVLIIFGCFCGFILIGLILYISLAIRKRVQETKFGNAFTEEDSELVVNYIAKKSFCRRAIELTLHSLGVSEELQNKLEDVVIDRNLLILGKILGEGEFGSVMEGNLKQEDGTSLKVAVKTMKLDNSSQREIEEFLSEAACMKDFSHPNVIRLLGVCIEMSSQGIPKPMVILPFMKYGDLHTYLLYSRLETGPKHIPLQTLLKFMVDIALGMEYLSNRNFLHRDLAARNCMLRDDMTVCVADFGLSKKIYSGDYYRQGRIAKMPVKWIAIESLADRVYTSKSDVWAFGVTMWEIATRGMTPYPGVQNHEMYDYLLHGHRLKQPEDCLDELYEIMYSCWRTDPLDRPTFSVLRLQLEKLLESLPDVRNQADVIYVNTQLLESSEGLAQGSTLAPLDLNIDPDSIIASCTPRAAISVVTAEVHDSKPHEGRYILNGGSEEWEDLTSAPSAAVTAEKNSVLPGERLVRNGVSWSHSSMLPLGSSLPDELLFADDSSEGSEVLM

Compound	pIC50 [1]	pIC50 [2]
Cc1ncc(C(=O)Nc2ccc(Oc3ccnc4cc(-c5cnn(C(F)F)c5)ccc34)cc2)c(O)c1-c1ccc(F)cc1 [Compound 377, N-[4-[7-[1-(difluoromethyl)pyrazol-4-yl]quinolin-4-yl]oxyphenyl]-5-(4-fluorophenyl)-4-hydroxy-6-methylpyridine-3-carboxamide]	> 7.00	> 7.00
COc1ccc2nccc(Oc3ccc(NC(=O)c4c(C)cc(C)n(-c5ccc(F)cc5C)c4=O)cc3F)c2n1 [Compound 296, N-[3-Fluoro-4-[(6-methoxy-1,5-naphthyridin-4-yl)oxy]phenyl]-1-(4-fluoro-2-methylphenyl)-4,6-dimethyl-2-oxopyridine-3-carboxamide]	> 7.00	6.52 to 7.00
COc1ccc2nccc(Oc3ccc(NC(=O)c4cccn(-c5ccc(F)cc5)c4=O)cc3F)c2n1 [Compound 292, N-[3-Fluoro-4-[(6-methoxy-1,5-naphthyridin-4-yl)oxy]phenyl]-1-(4-fluorophenyl)-2-oxopyridine-3-carboxamide]	> 7.00	< 6.52
COc1ccc2nccc(Oc3ccc(NC(=O)c4ccc(C)n(-c5ccc(F)cc5C)c4=O)cc3)c2n1 [Compound 276, 1-(4-Fluoro-2-methylphenyl)-N-[4-[(6-methoxy-1,5-naphthyridin-4-yl)oxy]phenyl]-6-methyl-2-oxopyridine-3-carboxamide]	> 7.00	< 6.52
Cc1nc(C)c(-c2ccc(F)cc2)c(O)c1C(=O)Nc1ccc(Oc2ccnc3ccc(OCCN4CCOCC4)nc23)c(F)c1 [Compound 355, N-[3-fluoro-4-[[6-(2-morpholin-4-ylethoxy)-1,5-naphthyridin-4-yl)oxy]phenyl]-5-(4-fluorophenyl)-4-hydroxy-2,6-dimethylpyridine-3-carboxamide]	> 7.00	> 7.00
COc1ccc2nccc(Oc3ccc(NC(=O)c4ncc(C)n(-c5ccc(F)cc5)c4=O)cc3)c2n1 [Compound 378, 4-(4-fluorophenyl)-N-[4-[(6-methoxy-1,5-naphthyridin-4-yl)oxy]phenyl]-5-methyl-3-oxopyrazine-2-carboxamide]	> 7.00	< 6.52
COc1cnc2c(Oc3ccc(NC(=O)c4cn(C)cc(-c5ccccc5)c4=O)cc3F)ccnc2c1 [Compound 40, N-[3-Fluoro-4-[(7-methoxy-1,5-naphthyridin-4-yl)oxy]phenyl]-1-methyl-4-oxo-5-phenylpyridine-3-carboxamide hydrochloride]	> 7.00	< 6.52
COc1cnc2c(Oc3ccc(NC(=O)c4cnc(C)n(-c5ccc(F)cc5)c4=O)cc3)ccnc2c1 [Compound 266, 1-(4-Fluorophenyl)-N-[4-[(7-methoxy-1,5-naphthyridin-4-yl)oxy]phenyl]-2-methyl-6-oxopyrimidine-5-carboxamide]	> 7.00	< 6.52
Cc1nc(C)n(-c2ccc(F)cc2)c(=O)c1C(=O)Nc1ccc(Oc2ccnc3cc(OCc4ccccc4)cnc23)c(F)c1 [Compound 278, 1-(4-Fluorophenyl)-N-[3-fluoro-4-[(7-phenylmethoxy-1,5-naphthyridin-4-yl)oxy]phenyl]-2,4-dimethyl-6-oxopyrimidine-5-carboxamide]	> 7.00	> 7.00
COc1ccc2nccc(Oc3ccc(NC(=O)c4ncc(C)n(-c5ccc(F)cc5C)c4=O)cc3F)c2n1 [Compound 394, N-[3-fluoro-4-[(6-methoxy-1,5-naphthyridin-4-yl)oxy]phenyl]-4-(4-fluoro-2-methylphenyl)-5-methyl-3-oxopyrazine-2-carboxamide]	> 7.00	< 6.52
COc1ccc2nccc(Oc3ccc(NC(=O)c4ccc(C)n(-c5ccc(F)cc5)c4=O)cc3F)c2c1 [Compound 346, N-[3-fluoro-4-(6-methoxyquinolin-4-yl)oxyphenyl]-1-(4-fluorophenyl)-6-methyl-2-oxopyridine-3-carboxamide]	> 7.00	6.52 to 7.00

More lines, now with the values ahead:

pIC50 [1]	pIC50 [2]	Compound
> 7.00	< 6.52	COc1cc2nccc(Oc3ccc(NC(=O)C4=C5CCCN5CC(c5ccc(F)cc5)C4=O)cc3F)c2nc1OC (racemic) [Compound 373, N-[4-[(6,7-dimethoxy-1,5-naphthyridin-4-yl)oxy]-3-fluorophenyl]-6-(4-fluorophenyl)-7-oxo-2,3,5,6-tetrahydro-1H-indolizine-8-carboxamide]
> 7.00	> 7.00	COc1cc2nccc(Oc3ccc(NC(=O)c4c(C)ccn(-c5ccc(F)cc5)c4=O)cc3)c2nc1OC [Compound 299, N-[4-[(6,7-Dimethoxy-1,5-naphthyridin-4-yl)oxy]phenyl]-1-(4-fluorophenyl)-4-methyl-2-oxopyridine-3-carboxamide]
> 7.00	6.52 to 7.00	COc1cc2nccc(Oc3ccc(NC(=O)c4cc(C(C)C)c(C)n(-c5ccc(F)cc5)c4=O)cc3F)c2nc1OC [Compound 368, N-[4-[(6,7-dimethoxy-1,5-naphthyridin-4-yl)oxy]-3-fluorophenyl]-1-(4-fluorophenyl)-6-methyl-2-oxo-5-propan-2-ylpyridine-3-carboxamide]
> 7.00	6.52 to 7.00	COc1cc2nccc(Oc3ccc(NC(=O)c4cn(C)cc(-c5ccc(Cl)cc5)c4=O)cc3F)c2nc1OC [Compound 38, 5-(4-Chlorophenyl)-N-[4-[(6,7-dimethoxy-1,5-naphthyridin-4-yl)oxy]-3-fluorophenyl]-1-methyl-4-oxopyridine-3-carboxamide hydrochloride]
> 7.00	< 6.52	CCn1cc(C(=O)Nc2ccc(Oc3ccnc4cc(OC)c(OC)nc34)c(F)c2)c(=O)c(-c2ccc(F)cc2C)c1CO [Compound 283, N-[4-[(6,7-Dimethoxy-1,5-naphthyridin-4-yl)oxy]-3-fluorophenyl]-1-ethyl-5-(4-fluoro-2-methylphenyl)-6-(hydroxymethyl)-4-oxopyridine-3-carboxamide]
> 7.00	> 7.00	COc1cc2nccc(Oc3ccc(NC(=O)c4c(C)ccn(-c5ccc(F)cc5)c4=O)cc3F)c2nc1OC [Compound 286, N-[4-[(6,7-Dimethoxy-1,5-naphthyridin-4-yl)oxy]-3-fluorophenyl]-1-(4-fluorophenyl)-4-methyl-2-oxopyridine-3-carboxamide]
> 7.00	> 7.00	COc1ccc2nccc(Oc3ccc(NC(=O)c4c(C)cc(C)n(-c5ccc(F)cc5)c4=O)cc3F)c2n1 [Compound 281, N-[3-Fluoro-4-[(6-methoxy-1,5-naphthyridin-4-yl)oxy]phenyl]-1-(4-fluorophenyl)-4,6-dimethyl-2-oxopyridine-3-carboxamide]
> 7.00	< 6.52	CCn1cc(C(=O)Nc2ccc(Oc3ccnc4cc(OC)c(OC)nc34)cc2)c(=O)c(-c2ccc(F)cc2C)c1CO [Compound 284, N-[4-[(6,7-Dimethoxy-1,5-naphthyridin-4-yl)oxy]phenyl]-1-ethyl-5-(4-fluoro-2-methylphenyl)-6-(hydroxymethyl)-4-oxopyridine-3-carboxamide]
> 7.00	< 6.52	COc1cnc2c(Oc3ccc(NC(=O)c4cnc(C)n(-c5ccc(F)cc5)c4=O)cc3F)ccnc2c1 [Compound 265, N-[3-Fluoro-4-[(7-methoxy-1,5-naphthyridin-4-yl)oxy]phenyl]-1-(4-fluorophenyl)-2-methyl-6-oxopyrimidine-5-carboxamide]
> 7.00	< 6.52	COc1cc2nccc(Oc3c(F)cc(NC(=O)c4cn(C)c(C)c(-c5ccc(F)cc5)c4=O)cc3F)c2nc1OC [Compound 392, N-[4-[(6,7-dimethoxy-1,5-naphthyridin-4-yl)oxy]-3,5-difluorophenyl]-5-(4-fluorophenyl)-1,6-dimethyl-4-oxopyridine-3-carboxamide]
> 7.00	> 7.00	COc1cc2nccc(Oc3ccc(NC(=O)c4cn(C)c(C)c(-c5ccc(F)cc5)c4=O)cc3Cl)c2nc1OC [Compound 388, N-[3-chloro-4-[(6,7-dimethoxy-1,5-naphthyridin-4-yl)oxy]phenyl]-5-(4-fluorophenyl)-1,6-dimethyl-4-oxopyridine-3-carboxamide]
> 7.00	6.52 to 7.00	CCn1cc(C(=O)Nc2ccc(Oc3ccnc4cc(OC)c(OC)nc34)cc2)c(=O)c(-c2ccc(F)cc2)c1CO [Compound 272, N-[4-[(6,7-Dimethoxy-1,5-naphthyridin-4-yl)oxy]phenyl]-1-ethyl-5-(4-fluorophenyl)-6-(hydroxymethyl)-4-oxopyridine-3-carboxamide]
> 7.00	6.52 to 7.00	COc1cc2nccc(Oc3cc(F)c(NC(=O)c4cn(C)c(C)c(-c5ccc(F)cc5)c4=O)cc3F)c2nc1OC [Compound 391, N-[4-[(6,7-dimethoxy-1,5-naphthyridin-4-yl)oxy]-2,5-difluorophenyl]-5-(4-fluorophenyl)-1,6-dimethyl-4-oxopyridine-3-carboxamide]
> 7.00	< 6.52	CCn1cc(C(=O)Nc2ccc(Oc3ccnc4cc(OC)cnc34)c(F)c2)c(=O)c(-c2ccc(F)cc2)c1CO [Compound 273, 1-Ethyl-N-[3-fluoro-4-[(7-methoxy-1,5-naphthyridin-4-yl)oxy]phenyl]-5-(4-fluorophenyl)-6-(hydroxymethyl)-4-oxopyridine-3-carboxamide]
> 7.00	< 6.52	C=C(C)c1cc(C(=O)Nc2ccc(Oc3ccnc4cc(OC)c(OC)nc34)c(F)c2)c(=O)n(-c2ccc(F)cc2)c1C [Compound 367, N-[4-[(6,7-dimethoxy-1,5-naphthyridin-4-yl)oxy]-3-fluorophenyl]-1-(4-fluorophenyl)-6-methyl-2-oxo-5-prop-1-en-2-ylpyridine-3-carboxamide]

Source: patent US12371428B2 (Exelixis, Inc., priority 2019, dated 2025)
